Laboratory results taken from patent US7049340B1, “Neuroprotective and retinoprotective ophthalmologic drugs” (priority 1999, dated 2006).

Tested on: patients with central serous chorioretinopathy
Test: Clinical treatment of retinal epitheliopathy and central serous chorioretinopathy (CSCR)
Assay type: in vivo, human
Settings: in a few days to a few weeks
Procedure: The invention will now be illustrated by the following description of clinical examples which, of course, are not limiting in nature. In these examples the active principle, in particular ramipril, was administered continuously in an oral form, in an amount of 1.25 mg per day.

CCOC(=O)[C@H](CCc1ccccc1)N[C@@H](C)C(=O)N1[C@H](C(=O)O)C[C@@H]2CCC[C@@H]21 [ramipril]
blister (retinal serous detachment): reduction in the blister | visual acuity and central field of vision: improvement in visual acuity and in the central field of vision
